Data from patent US8716355B2, “Hydroxylated tolans and related compounds in the treatment of a cancer” (Kent State University, priority 2007, dated 2014).
Like-named read-outs stand apart in the source and are kept apart here.

Tests used:
[1] = test system: MDAH2274; assay: MTT cytotoxicity, MDAH2274 ovarian cancer cells; type: cell-based, human
Procedure: As a first step, the antitumor activity of the tolans was assessed against a panel of three cancer cells lines that produce solid tumors upon implantation into animals. DU145 is an androgen-independent prostate cancer cells. T24 is a transitional cell bladder carcinoma cell. MDAH2274 (“MDAH) is an endometroid ovarian adenocarcinoma cell. To assess the selectivity of this antitumor activity, the toxicity of the tolans to normal human fibroblasts (MHRF) was examined.
Cell killing was evaluated using the colorimetric MTT assay. The assay measures the formation of a colored product from a chromogenic precursor, the tetrazole 3-[4,5-dimethylthiazol-2-yl]-2,5 diphenyltetrazolium bromide (MTT). The yellow MTT is reduced to purple formazan in the mitochondria of living cells. A solubilization solution (typically dimethyl sulfoxide or sodium dodecyl sulfate in dilute hydrochloric acid) is added to dissolve the insoluble purple formazan product into a colored solution. The absorbance of this colored solution is quantified by measuring at a certain wavelength (usually between 500 and 600 nm) by a spectrophotometer. […] This MTT assay is used widely to assess the cytotoxicity and selectivity of compounds such as anti-cancer drugs. The assay is suitable for rapid toxicity characterization of a test agent such as a drug formulation. […] A lower CD50 indicates a greater cytotoxic activity (as a lower amount of the agent is needed to achieve a fixed level of cytotoxicity). Two agents can be compared by examining the fold-increase or decrease in their CD50 values.

[2] = test system: SKMEL28; assay: MTT cytotoxicity, SKMEL28 melanoma; type: cell-based; conditions: Homo sapiens, SK-MEL-28, 72 h; 3 Days; read-out: CD50 (μM) SKMEL28
Procedure: Cell killing was evaluated using the colorimetric MTT assay. The assay measures the formation of a colored product from a chromogenic precursor, the tetrazole 3-[4,5-dimethylthiazol-2-yl]-2,5 diphenyltetrazolium bromide (MTT). The yellow MTT is reduced to purple formazan in the mitochondria of living cells. A solubilization solution (typically dimethyl sulfoxide or sodium dodecyl sulfate in dilute hydrochloric acid) is added to dissolve the insoluble purple formazan product into a colored solution. The absorbance of this colored solution is quantified by measuring at a certain wavelength (usually between 500 and 600 nm) by a spectrophotometer. The amount of purple formazan product generated is proportional to the number of viable cells (Mosmann, T., 1983, J. Immunol. Meth. 65:55-63; Wilson, A. P., Cytotoxicity and Viability Assays. In: Animal Cell Culture: A Practical Approach, 3rd ed. (Masters, J R W, ed.) Oxford University Press: Oxford, Vol. 1, pp. 175-219. 2000). This MTT assay is used widely to assess the cytotoxicity and selectivity of compounds such as anti-cancer drugs. The assay is suitable for rapid toxicity characterization of a test agent such as a drug formulation. […] A lower CD50 indicates a greater cytotoxic activity (as a lower amount of the agent is needed to achieve a fixed level of cytotoxicity). […]

[3] = target: T1, ovine COX-1 (Ovis aries, UniProt P05979); assay: COX Inhibitor Screening Assay, COX1; type: biochemical
T1 construct: purchased Cayman Chemical 560131
Procedure: The indicated concentration of these agents were tested in the presence of COX1. COX activity was quantified by measuring the amount of final product PGF2α which competed with acetylcholinesterase (AChE)-linked PGs for binding to its antibody immobilized to the surface of microplate wells. Color was developed by adding an AChE substrate and was inversely related to the amount of PGF2α±SD of triplicate determinations.
The prostanoid product can be quantified via enzyme immunoassay (EIA) using a broadly specific antibody that binds to all the major prostaglandin compounds. COX assays from Cayman Chemical, Ann Arbor, Mich., are more accurate and reliable than assays based on peroxidase inhibition. The Cayman COX Inhibitor Screening Assay includes both ovine COX-1 and human recombinant COX-2 enzymes in order to screen isozyme-specific inhibitors. This assay is an excellent tool which can be used for general inhibitor screening.
COX was assayed by measuring production of PGF2, generated by stannous chloride (SnCl2) in the presence of PGH2 using a commercial kit from Cayman Chemical, (Ovine COX Inhibitor Screening Assay, Catalog #560131). […]
A 96-well plate coated with mouse anti-rabbit IgG was then used and various components were added—assay standards, nonspecific binding controls, maximum binding controls, and the inhibitor dilutions—along with the tracer and antiserum. The plate was incubated at room temperature for 18 hours, washed five times with wash buffer, developed with Ellman's Reagent and the colored reaction product was read on an automatic microplate reader at 410 nm. The IC50 for the respective COX enzyme was graphically determined from a three-point curve. […]
The intensity of color was inversely proportional to the amount of free prostaglandins quantitatively representing the COX enzymatic activity, under the influence of the test compounds.
As noted, COX activity was quantified by measuring the amount of final product PGF2-α which competed with AChE-linked PGs for binding to an antibody immobilized to microplates. […]

[4] = test system: colon cancer; assay: Colon cancer patients (Example VIII E); type: in vivo, human
Procedure: Eight patients suffering from advanced colon cancer are treated daily for three weeks with an intravenous infusion of 2 g of the compounds KST-201, KST-213, KST-301 or KST-401 dissolved in saline. Two patients are assigned to each compound. The compounds are dissolved in sterile saline. […] Progression of the tumor is also arrested over the treatment period.
Another eight patients with terminal colon cancer are treated by daily bolus injections (intravenous or intramuscular) of 2 g of KST-201, KST-213, KST-301 or KST-401.

[5] = Homo sapiens, 24 h, MTT, 1 day incubation, read-out: CD50 against MDAH, compound tested individually
[6] = Homo sapiens, 48 h, MTT, 2 days incubation, read-out: CD50 against MDAH, compound tested individually
[7] = Homo sapiens, 72 h, MTT, 3 days incubation, read-out: CD50 against MDAH, compound tested individually
[8] = MTT, 1 day incubation, read-out: CD50 against MDAH, compound tested individually
[9] = intravenous infusion 2 g daily for three weeks

T1 sequence (P05979 25-600): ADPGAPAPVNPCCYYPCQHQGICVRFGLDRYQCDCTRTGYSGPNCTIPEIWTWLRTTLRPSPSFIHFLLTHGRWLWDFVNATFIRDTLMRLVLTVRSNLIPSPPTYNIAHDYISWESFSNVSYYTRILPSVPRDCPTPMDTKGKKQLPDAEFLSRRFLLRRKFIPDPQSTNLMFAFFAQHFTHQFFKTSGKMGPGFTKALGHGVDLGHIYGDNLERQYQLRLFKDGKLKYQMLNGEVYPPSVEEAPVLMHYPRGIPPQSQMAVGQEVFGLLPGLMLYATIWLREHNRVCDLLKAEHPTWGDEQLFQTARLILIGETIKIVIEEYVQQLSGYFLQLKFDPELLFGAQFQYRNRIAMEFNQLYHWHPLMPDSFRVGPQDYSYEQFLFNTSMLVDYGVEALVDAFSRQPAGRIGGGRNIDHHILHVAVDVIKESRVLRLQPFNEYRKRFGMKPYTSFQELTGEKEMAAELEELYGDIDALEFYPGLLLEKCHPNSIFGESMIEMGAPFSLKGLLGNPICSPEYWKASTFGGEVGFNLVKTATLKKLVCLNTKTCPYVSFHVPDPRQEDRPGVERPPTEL

Oc1ccc(C#Cc2ccc(O)cc2)cc1 [KST-201, 4,4′-dihydroxytolan]
Fold more potent in killing MDAH2274 cells vs. control MHRF fibroblasts [1]: 50 fold
IC50 [1, 5]: 22 µM
IC50 ([1]; Homo sapiens, 24 h, VC:KST-201 400:1, 1 day, read-out: CD50 (μM) of each Compound tested in combination, MDAH 2274): 1.16 µM
IC50 [1, 6]: 10.5 ± 2.7 µM
IC50 ([1]; Homo sapiens, 48 h, VC:KST-201 400:1, 2 days, read-out: CD50 (μM) of each Compound tested in combination, MDAH 2274): 0.97 ± 0.02 µM
IC50 [1, 7]: 3.1 µM
IC50 ([1]; Homo sapiens, 72 h, VC:KST-201 400:1, 3 days, read-out: CD50 (μM) of each Compound tested in combination, MDAH 2274): 0.98 µM
IC50 ([1]; MTT, 1 day incubation, listed as Hydroxytolan, read-out: CD50 against MDAH, compound tested individually): 21.5 ± 7.4 µM
IC50 ([1]; MTT, 1 day incubation, listed as hydroxytolan, read-out: CD50 against MDAH, compound tested individually): 21.5 µM
IC50 [1, 8]: 21.5 ± 7.35 µM
Fold more toxic to MDAH 2274 ovarian cancer cells than resveratrol ([1]; Table 15 vs Table 14): 4.7 fold
Increase of cytotoxic potency in the combination, MDAH 2274 ([1]; VC:KST-201 400:1, 1 day): about 20 fold
IC50 [2]: 82 ± 10 µM
Inhibition of COX1 activity ([3]; doses of 10 to 200 μM tested): about 50%
Dissemination of the tumors ([4]; daily bolus injections (intravenous or intramuscular) of 2 g): dissemination of the tumors is diminished
Cancer marker carcinoembryonic antigen (CEA) [4, 9]: significant reduction
Progression of the tumor [4, 9]: arrested

Oc1ccc(/C=C/c2cc(O)cc(O)c2)cc1 [Resveratrol, 3,5,4′-trihydroxy-trans-stilbene, reference compound]
IC50 [1, 5]: 37 µM
IC50 [1, 6]: 23.1 ± 0.14 µM
IC50 [1, 7]: 15 µM
IC50 [1, 8]: 36.9 ± 2.45 µM
IC50 ([1]; MTT, 3 days incubation, read-out: CD50 against MDAH, compound tested individually): 14.6 ± 0.12 µM
IC50 [2]: 69 ± 1.2 µM
COX1 enzymatic activity ([3]; high end of 10 μM to 200 μM): complete inhibition
COX1 enzymatic activity, % of initial activity ([3]; low end of 10 μM to 200 μM): 5%
